{"source": "ChEMBL document CHEMBL5316344", "about": "“Homologation of the Alkyl Side Chain of Antimitotic Phenyl 4-(2-Oxo-3-alkylimidazolidin-1-yl)benzenesulfonate Prodrugs Selectively Targeting CYP1A1-Expressing Breast Cancers Improves Their Stability in Rodent Liver Microsomes” (J Med Chem, 2023)", "key": {"[1]": {"assay": "Drug excretion in OF1 mouse urine at 292 kBq, iv administered as C14-lableled compound and assessed as radioactivity and measured at 3 to 6 hrs post dose", "format": "ADME, organism-based", "conditions": "in vivo, time 3-6 hrs; call rule not given here"}, "[2]": {"assay": "Biodistribution in brain of OF1 mouse at 292 kBq, iv administered as C14-lableled compound and assessed as radioactivity and measured at 1 hr post dose by digital autoradiographic analysis", "format": "ADME, organism-based", "conditions": "in vivo"}, "[3]": {"assay": "Biodistribution in kidney of nude mouse xenografted with human MCF7 cells at 292 kBq, iv administered as C14-lableled compound and assessed as radioactivity and measured at 6 hrs post dose by digital autoradiographic analysis", "format": "ADME, organism-based", "conditions": "in vivo"}, "[4]": {"assay": "Biodistribution in heart of nude mouse xenografted with human MCF7 cells at 292 kBq, iv administered as C14-lableled compound and assessed as radioactivity and measured at 6 hrs post dose by digital autoradiographic analysis", "format": "ADME, organism-based", "conditions": "in vivo"}, "[5]": {"assay": "Biodistribution in brain of nude mouse xenografted with human MCF7 cells at 292 kBq, iv administered as C14-lableled compound and assessed as radioactivity and measured at 6 hrs post dose by digital autoradiographic analysis", "format": "ADME, organism-based", "conditions": "in vivo"}, "[6]": {"assay": "Biodistribution in spleen of nude mouse xenografted with human MCF7 cells at 292 kBq, iv administered as C14-lableled compound and assessed as radioactivity and measured at 6 hrs post dose by digital autoradiographic analysis", "format": "ADME, organism-based", "conditions": "in vivo"}, "[7]": {"assay": "Biodistribution in muscle of OF1 mouse at 292 kBq, iv administered as C14-lableled compound and assessed as radioactivity and measured at 1 hr post dose by digital autoradiographic analysis", "format": "ADME, organism-based, Muscle tissue", "conditions": "in vivo"}, "[8]": {"assay": "Biodistribution in stomach of OF1 mouse at 292 kBq, iv administered as C14-lableled compound and assessed as radioactivity and measured at 1 hr post dose by digital autoradiographic analysis", "format": "ADME, organism-based", "conditions": "in vivo"}, "[9]": {"assay": "Biodistribution in spleen of OF1 mouse at 292 kBq, iv administered as C14-lableled compound and assessed as radioactivity and measured at 1 hr post dose by digital autoradiographic analysis", "format": "ADME, organism-based", "conditions": "in vivo"}, "[10]": {"assay": "Biodistribution in stomach of nude mouse xenografted with human MCF7 cells at 292 kBq, iv administered as C14-lableled compound and assessed as radioactivity and measured at 6 hrs post dose by digital autoradiographic analysis", "format": "ADME, organism-based", "conditions": "in vivo"}, "[11]": {"assay": "Biodistribution in kidney of OF1 mouse at 292 kBq, iv administered as C14-lableled compound and assessed as radioactivity and measured at 1 hr post dose by digital autoradiographic analysis", "format": "ADME, organism-based", "conditions": "in vivo"}, "[12]": {"assay": "Biodistribution in muscle of nude mouse xenografted with human MCF7 cells at 292 kBq, iv administered as C14-lableled compound and assessed as radioactivity and measured at 6 hrs post dose by digital autoradiographic analysis", "format": "ADME, organism-based, Muscle tissue", "conditions": "in vivo"}, "[13]": {"assay": "Biodistribution in lungs of OF1 mouse at 292 kBq, iv administered as C14-lableled compound and assessed as radioactivity and measured at 1 hr post dose by digital autoradiographic analysis", "format": "ADME, organism-based, Lung", "conditions": "in vivo"}, "[14]": {"assay": "Biodistribution in heart of OF1 mouse at 292 kBq, iv administered as C14-lableled compound and assessed as radioactivity and measured at 1 hr post dose by digital autoradiographic analysis", "format": "ADME, organism-based", "conditions": "in vivo"}, "[15]": {"assay": "Biodistribution in lung of nude mouse xenografted with human MCF7 cells at 292 kBq, iv administered as C14-lableled compound and assessed as radioactivity and measured at 6 hrs post dose by digital autoradiographic analysis", "format": "ADME, organism-based", "conditions": "in vivo"}, "[16]": {"assay": "Drug excretion in OF1 mouse feces at 292 kBq, iv administered as C14-lableled compound and assessed as radioactivity and measured at 3 to 6 hrs post dose", "format": "ADME, organism-based", "conditions": "in vivo, time 3-6 hrs"}, "[17]": {"assay": "Biodistribution in liver of OF1 mouse at 292 kBq, iv administered as C14-lableled compound and assessed as radioactivity and measured at 1 hr post dose by digital autoradiographic analysis", "format": "ADME, organism-based", "conditions": "in vivo"}, "[18]": {"assay": "Drug accumulation in tumor of nude mouse xenografted with human MCF7 cells at 231 kBq, iv administered as C14-lableled compound and assessed as radioactivity and measured at 3 hrs post dose by digital autoradiographic analysis", "format": "ADME, organism-based, Neoplasm", "conditions": "in vivo"}, "[19]": {"assay": "Biodistribution in heart of nude mouse xenografted with human MCF7 cells at 231 kBq, iv administered as C14-lableled compound and assessed as radioactivity and measured at 3 hrs post dose by digital autoradiographic analysis", "format": "ADME, organism-based", "conditions": "in vivo"}, "[20]": {"assay": "Drug excretion in OF1 mouse urine at 231 kBq, iv administered as C14-lableled compound and assessed as radioactivity and measured at 3 to 6 hrs post dose", "format": "ADME, organism-based", "conditions": "in vivo, time 3-6 hrs"}, "[21]": {"assay": "Biodistribution in kidney of OF1 mouse at 231 kBq, iv administered as C14-lableled compound and assessed as radioactivity and measured at 1 hr post dose by digital autoradiographic analysis", "format": "ADME, organism-based", "conditions": "in vivo"}, "[22]": {"assay": "Biodistribution in lungs of nude mouse xenografted with human MCF7 cells at 231 kBq, iv administered as C14-lableled compound and assessed as radioactivity and measured at 3 hrs post dose by digital autoradiographic analysis", "format": "ADME, organism-based, Lung", "conditions": "in vivo"}, "[23]": {"assay": "Biodistribution in brain of nude mouse xenografted with human MCF7 cells at 231 kBq, iv administered as C14-lableled compound and assessed as radioactivity and measured at 3 hrs post dose by digital autoradiographic analysis", "format": "ADME, organism-based", "conditions": "in vivo"}, "[24]": {"assay": "Ratio of drug level in tumor to muscle in nude mouse xenografted with human MCF7 cells at 231 kBq, iv administered as C14-lableled compound and assessed as radioactivity and measured at 3 hrs post dose", "format": "ADME, organism-based", "conditions": "in vivo"}, "[25]": {"assay": "Drug excretion in OF1 mouse feces at 231 kBq, iv administered as C14-lableled compound and assessed as radioactivity and measured at 3 to 6 hrs post dose", "format": "ADME, organism-based", "conditions": "in vivo, time 3-6 hrs"}, "[26]": {"assay": "Biodistribution in heart of OF1 mouse at 231 kBq, iv administered as C14-lableled compound and assessed as radioactivity and measured at 1 hr post dose by digital autoradiographic analysis", "format": "ADME, organism-based", "conditions": "in vivo"}, "[27]": {"assay": "Biodistribution in stomach of nude mouse xenografted with human MCF7 cells at 231 kBq, iv administered as C14-lableled compound and assessed as radioactivity and measured at 3 hrs post dose by digital autoradiographic analysis", "format": "ADME, organism-based", "conditions": "in vivo"}, "[28]": {"assay": "Ratio of drug level in tumor to muscle in nude mouse xenografted with human MCF7 cells at 231 kBq, iv administered as C14-lableled compound and assessed as radioactivity and measured at 1 hr post dose", "format": "ADME, organism-based", "conditions": "in vivo"}, "[29]": {"assay": "Biodistribution in muscle of nude mouse xenografted with human MCF7 cells at 231 kBq, iv administered as C14-lableled compound and assessed as radioactivity and measured at 3 hrs post dose by digital autoradiographic analysis", "format": "ADME, organism-based, Muscle tissue", "conditions": "in vivo"}, "[30]": {"assay": "Biodistribution in spleen of nude mouse xenografted with human MCF7 cells at 231 kBq, iv administered as C14-lableled compound and assessed as radioactivity and measured at 3 hrs post dose by digital autoradiographic analysis", "format": "ADME, organism-based", "conditions": "in vivo"}, "[31]": {"assay": "Biodistribution in stomach of OF1 mouse at 231 kBq, iv administered as C14-lableled compound and assessed as radioactivity and measured at 1 hr post dose by digital autoradiographic analysis", "format": "ADME, organism-based", "conditions": "in vivo"}, "[32]": {"assay": "Biodistribution in liver of OF1 mouse at 231 kBq, iv administered as C14-lableled compound and assessed as radioactivity and measured at 1 hr post dose by digital autoradiographic analysis", "format": "ADME, organism-based", "conditions": "in vivo"}, "[33]": {"assay": "Biodistribution in muscle of OF1 mouse at 231 kBq, iv administered as C14-lableled compound and assessed as radioactivity and measured at 1 hr post dose by digital autoradiographic analysis", "format": "ADME, organism-based, Muscle tissue", "conditions": "in vivo"}, "[34]": {"assay": "Biodistribution in kidney of nude mouse xenografted with human MCF7 cells at 231 kBq, iv administered as C14-lableled compound and assessed as radioactivity and measured at 3 hrs post dose by digital autoradiographic analysis", "format": "ADME, organism-based", "conditions": "in vivo"}, "[35]": {"assay": "Biodistribution in spleen of OF1 mouse at 231 kBq, iv administered as C14-lableled compound and assessed as radioactivity and measured at 1 hr post dose by digital autoradiographic analysis", "format": "ADME, organism-based", "conditions": "in vivo"}, "[36]": {"assay": "Biodistribution in brain of OF1 mouse at 231 kBq, iv administered as C14-lableled compound and assessed as radioactivity and measured at 1 hr post dose by digital autoradiographic analysis", "format": "ADME, organism-based", "conditions": "in vivo"}, "[37]": {"assay": "Biodistribution in lungs of OF1 mouse at 231 kBq, iv administered as C14-lableled compound and assessed as radioactivity and measured at 1 hr post dose by digital autoradiographic analysis", "format": "ADME, organism-based, Lung", "conditions": "in vivo"}, "[38]": {"assay": "Drug accumulation in tumor of nude mouse xenografted with human MCF7 cells intravenously at 231 kBq, iv administered as C14-lableled compound and assessed as radioactivity and measured at 1 hr post dose by digital autoradiographic analysis", "format": "ADME, organism-based, Neoplasm", "conditions": "in vivo"}}, "data": [{"smiles": "COc1cc(OS(=O)(=O)c2ccc(N3CCN[14C]3=O)cc2)cc(OC)c1OC", "values": [{"measurement": "Drug excretion", "setting": "[1]", "value": "Active"}, {"measurement": "Drug uptake", "setting": "[2]", "value": "Active"}, {"measurement": "Drug uptake", "setting": "[3]", "value": "Not Active"}, {"measurement": "Drug uptake", "setting": "[4]", "value": "Not Active"}, {"measurement": "Drug uptake", "setting": "[5]", "value": "Not Active"}, {"measurement": "Drug uptake", "setting": "[6]", "value": "Not Active"}, {"measurement": "Drug uptake", "setting": "[7]", "value": "Active"}, {"measurement": "Drug uptake", "setting": "[8]", "value": "Active"}, {"measurement": "Drug uptake", "setting": "[9]", "value": "Active"}, {"measurement": "Drug uptake", "setting": "[10]", "value": "Not Active"}, {"measurement": "Drug uptake", "setting": "[11]", "value": "Active"}, {"measurement": "Drug uptake", "setting": "[12]", "value": "Not Active"}, {"measurement": "Drug uptake", "setting": "[13]", "value": "Active"}, {"measurement": "Drug uptake", "setting": "[14]", "value": "Active"}, {"measurement": "Drug uptake", "setting": "[15]", "value": "Not Active"}, {"measurement": "Drug excretion", "setting": "[16]", "value": "Active"}, {"measurement": "Drug uptake", "setting": "[17]", "value": "Active"}]}, {"smiles": "CCCCN1CCN(c2ccc(S(=O)(=O)Oc3cc(OC)c(OC)c(OC)c3)cc2)[14C]1=O", "values": [{"measurement": "Drug uptake", "setting": "[18]", "value": 0.8, "unit": "%"}, {"measurement": "Drug uptake", "setting": "[19]", "value": "Not Active"}, {"measurement": "Drug excretion", "setting": "[20]", "value": "Active"}, {"measurement": "Drug uptake", "setting": "[21]", "value": "Active"}, {"measurement": "Drug uptake", "setting": "[22]", "value": "Not Active"}, {"measurement": "Drug uptake", "setting": "[23]", "value": "Not Active"}, {"measurement": "Ratio", "setting": "[24]", "value": 2.5}, {"measurement": "Drug excretion", "setting": "[25]", "value": "Active"}, {"measurement": "Drug uptake", "setting": "[26]", "value": "Active"}, {"measurement": "Drug uptake", "setting": "[27]", "value": "Not Active"}, {"measurement": "Ratio", "setting": "[28]", "value": 1.1}, {"measurement": "Drug uptake", "setting": "[29]", "value": "Not Active"}, {"measurement": "Drug uptake", "setting": "[30]", "value": "Not Active"}, {"measurement": "Drug uptake", "setting": "[31]", "value": "Active"}, {"measurement": "Drug uptake", "setting": "[32]", "value": "Active"}, {"measurement": "Drug uptake", "setting": "[33]", "value": "Active"}, {"measurement": "Drug uptake", "setting": "[34]", "value": "Not Active"}, {"measurement": "Drug uptake", "setting": "[35]", "value": "Active"}, {"measurement": "Drug uptake", "setting": "[36]", "value": "Active"}, {"measurement": "Drug uptake", "setting": "[37]", "value": "Active"}, {"measurement": "Drug uptake", "setting": "[38]", "value": 1.6, "unit": "%"}]}]}
